Key:
hTRPC7-YFP = tested on: T1, hTRPC7-YFP; experiment: Fluo-4 Ca2+ influx assay in HEK293 cells stably expressing TRPC7; assay type: cell-based, human; conditions: fluo-4 concentration response analysis
T1 construct: expressed in transfected cells

parental HEK293 cells = experiment: [Ca2+]i response in un-transfected parental HEK293 cells; assay type: cell-based, human
Experimental: All fluorometric Ca^2+ assays were done in (4-(2-hydroxyethyl)-1-piperazineethanesulfonic acid) (HEPES)-buffered saline (HBS), containing 132 mM NaCl, 6 mM KCl, 1 mM MgCl2, 1 mM CaCl2, 5.5 mM D-glucose, 10 mM HEPES, and 0.035% bovine serum albumin (BSA) adjusted to pH 7.4 with NaOH. For measurements in Ca^2+-free bath solutions, a modified HBS without CaCl2 was supplemented with 200 µM ethylene glycol-bis(β-aminoethyl ether)-N,N,N′,N′-tetraacetic acid (EGTA).
The primary compound screen and the generation of concentration response curves in HEK293 cells or in PC12 cells were performed by using a custom-made fluorescence plate imager built into a robotic liquid handling station equipped with a 96-tip multichannel head (Freedom Evo 150, Tecan, Männedorf, Switzerland) as described previously. To this end, trypsinized cell suspensions were loaded with 4 µM fluo-4/AM (Invitrogen, Thermo Fisher Scientific, Waltham, MA, U.S.A.) in cell culture medium for 30 min at 37 °C. After brief centrifugation, cells were resuspended in HBS and dispensed into black pigmented, clear-bottom 384-well plates (Greiner µClear, Frickenhausen, Germany). Plates were mounted on the imager, and fluorescence signals were recorded with a cooled Zyla 5.5 camera (Andor, Belfast, UK) through a 515 nm long pass filter. The image acquisition was controlled by the µManager software (http://micro-manager.org), and excitation with a LED array (470 nm) was synchronized by the camera trigger output. After baseline recording for about 60 s, the compound libraries or serial dilutions of activators or inhibitors were added to the cells by the liquid handling device. When inhibitory potencies were evaluated, a second pipetting step with the respective reference agonist was performed. Fluorescence intensities were calculated from image stacks for each well with ImageJ (National Institutes of Health, Bethesda, MD, U.S.A.), corrected for background signals, and normalized to the initial intensities (F/F0). […]

mTRPC4ß-YFP = tested on: T2, mTRPC4ß-YFP; experiment: Selectivity profiling, fluo-4 [Ca2+]i response, TRPC4; assay type: cell-based, mouse; conditions: 100 µM
T2 construct: expressed in transfected cells
Experimental: Human embryonic kidney 293 (HEK293) cells were stably transfected with expression plasmids that encode hTRPC3-YFP, hTRPC6-YFP, hTRPC7-YFP, mTRPC4ß-YFP, rTRPV1-CFP, rTRPV2-YFP, rTRPV3-YFP, mTRPV4-YFP, or hTRPM2 as previously described. Cell lines were cultured in Earle’s minimum essential medium (MEM; Sigma, Munich, Germany), supplemented with 10% fetal calf serum (Gibco Thermo Fisher Scientific, Darmstadt, Germany), 2 mM L-glutamine, and required concentrations of geneticin in a range of 0.4–1 mg/mL. A HEK293mTRPC5-YFP cell line was maintained and induced as described before. […] For electrophysiological and single cell [Ca^2+]i imaging experiments, PC12 cells were plated onto 25 mm poly-L-lysine-coated glass coverslips and measured 24–48 h after seeding. […]
The primary compound screen and the generation of concentration response curves in HEK293 cells or in PC12 cells were performed by using a custom-made fluorescence plate imager built into a robotic liquid handling station equipped with a 96-tip multichannel head (Freedom Evo 150, Tecan, Männedorf, Switzerland) as described previously. […] Plates were mounted on the imager, and fluorescence signals were recorded with a cooled Zyla 5.5 camera (Andor, Belfast, UK) through a 515 nm long pass filter. […] When inhibitory potencies were evaluated, a second pipetting step with the respective reference agonist was performed. […]

## C[C@@H]1CC[C@H]2[C@@H](C)C(=O)O[C@@H]3O[C@@]4(C)CC[C@@H]1[C@]32OO4 [artemisinin]
hTRPC7-YFP
  effect on TRPC7: weakly activated
Parental HEK293 cells; concentrations up to 50 µM
  response of un-transfected parental HEK293 cells: no response
Parental HEK293 cells; single-cell analysis, followed by carbachol
  [Ca2+]i signals in parental HEK293 cells: does not induce [Ca^2+]i signals
mTRPC4ß-YFP
  [Ca2+]i response, TRPC4: none of the cell lines responded

Reference: paper PMC7016953 (Cells, 2020)
